Tests used:
[1] = molecular target: GDP-bound NRAS wild-type protein (Homo sapiens, UniProt P01111); experiment: Binding to NRAS by surface plasmon resonance (SPR), Single Cycle Kinetics; details: SPR; GDP-bound NRAS wild-type protein vs GDP-bound KRAS wild-type protein; KD ratio class
[2] = system: human lung cancer strain NCI-H441;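 note: cell proliferation inhibition after four days measured by CellTiter-Glo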
[3] = molecular target: GDP-bound KRAS wild-type protein (Homo sapiens, UniProt P01116); experiment: Binding to KRAS by surface plasmon resonance (SPR), Single Cycle Kinetics; details: SPR, Single Cycle Kinetics, 1:1 binding model; GDP-bound KRAS wild-type protein; read-out: KRAS KD
[4] = molecular target: GDP-bound HRAS wild-type protein (Homo sapiens, UniProt P01112); experiment: Binding to HRAS by surface plasmon resonance (SPR), Single Cycle Kinetics; details: SPR; GDP-bound HRAS wild-type protein vs GDP-bound KRAS wild-type protein; KD ratio class
GDP-bound HRAS wild-type protein, sequence (P01112 whole entry): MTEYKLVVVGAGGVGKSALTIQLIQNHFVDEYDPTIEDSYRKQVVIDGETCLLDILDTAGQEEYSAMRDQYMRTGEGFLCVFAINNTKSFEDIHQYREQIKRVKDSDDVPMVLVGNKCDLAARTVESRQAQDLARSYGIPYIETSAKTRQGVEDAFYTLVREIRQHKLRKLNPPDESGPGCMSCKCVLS

GDP-bound NRAS wild-type protein, sequence (P01111 whole entry): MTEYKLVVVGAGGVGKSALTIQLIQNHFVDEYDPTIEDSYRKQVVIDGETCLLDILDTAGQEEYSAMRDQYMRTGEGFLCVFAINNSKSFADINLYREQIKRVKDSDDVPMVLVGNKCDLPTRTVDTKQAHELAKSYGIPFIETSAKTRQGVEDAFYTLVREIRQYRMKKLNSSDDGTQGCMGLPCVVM
GDP-bound KRAS wild-type protein, sequence (P01116 whole entry): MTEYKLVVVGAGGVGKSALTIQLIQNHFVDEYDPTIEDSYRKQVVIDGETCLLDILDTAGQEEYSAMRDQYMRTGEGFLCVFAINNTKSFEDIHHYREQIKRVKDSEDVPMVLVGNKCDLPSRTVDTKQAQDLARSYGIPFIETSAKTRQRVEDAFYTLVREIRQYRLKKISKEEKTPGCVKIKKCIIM

SMILES | NRAS/KRAS (ratio of KD value for NRAS to KD value for KRAS) [1] | IC50 [2] [nM] | Kd [3] [nM] | HRAS/KRAS (ratio of KD value for HRAS to KD value for KRAS) [4]
CCO[C@@H]1C[C@H]2C(=O)NC3(CCC3)C(=O)N(C)[C@@H](C3CCCC3)C(=O)N(C)[C@H](C(=O)N(C)C)CC(=O)N(C)[C@@H](CSC)C(=O)N[C@@H]([C@@H](C)CC)C(=O)N(C)CC(=O)N(C)[C@H]3C/C=C\CCN(C3=O)[C@@H](CC3CCC(F)(F)CC3)C(=O)N(C)CC(=O)N[C@@H](CCc3cc(F)c(C(F)(F)F)c(F)c3)C(=O)N2C1 [PP1449, (2S,8S,12R,14S,20S,23S,27R,30S,36S,38Z)-20-cyclopentyl-2-[(4,4-difluorocyclohexyl)methyl]-8-[2-[3,5-difluoro-4-(trifluoromethyl)phenyl]ethyl]-12-ethoxy-N,N,4,19,22,26,32,35-octamethyl-30-[(1 S)-1-methylpropyl]-27-(methylsulfanylmethyl)-3,6,9,15,18,21,25,28,31,34,42-undecaoxo-spiro[1,4,7,10,16,19,22,26,29,32,35-undecazatricyclo[34.5.1.0^10,14]dotetracont-38-ene-17,1′-cyclobutane]-23-carboxamide] | A (a compound having 10 or more and less than 20 is denoted as A) | 30.6 | 0.098 | A (a compound having 10 or more and less than 20 is denoted as A)
CCC[C@H]1C(=O)N[C@@H]([C@@H](C)CC)C(=O)N(C)CC(=O)N(C)[C@H]2C/C=C\CCN(C2=O)[C@@H](CC2CCC(F)(F)CC2)C(=O)N(C)CC(=O)N[C@@H](CCc2cc(F)c(C(F)(F)F)c(F)c2)C(=O)N2C[C@H](OCC)C[C@H]2C(=O)NC2(CCC2)C(=O)N(C)[C@@H](C2CCCC2)C(=O)N(C)[C@H](C(=O)N(C)C)CC(=O)N1C [PP1450, (2S,8S,12R,14S,20S,23S,27S,30S,36S,38Z)-20-cyclopentyl-2-[(4,4-difluorocyclohexyl)methyl]-8-[2-[3,5-difluoro-4-(trifluoromethyl)phenyl]ethyl]-12-ethoxy-N,N,4,19,22,26,32,35-octamethyl-30-[(1S)-1-methylpropyl]-3,6,9,15,18,21,25,28,31,34,42-undecaoxo-27-propyl-spiro[1,4,7,10,16,19,22,26,29,32,35-undecazatricyclo[34.5.1.0^10,14]dotetracont-38-ene-17,1′-cyclobutane]-23-carboxamide] | A (a compound having 10 or more and less than 20 is denoted as A) | 50.1 | 0.14 | A (a compound having 10 or more and less than 20 is denoted as A)
CC[C@H](C)[C@@H]1NC(=O)[C@H](CC)N(C)C(=O)C[C@@H](C(=O)N(C)C)N(C)C(=O)[C@H](C2CCCC2)N(C)C(=O)C2(CCC2)NC(=O)[C@@H]2C[C@@H](C(F)(F)F)CN2C(=O)[C@H](CCc2cc(F)c(C(F)(F)F)c(F)c2)NC(=O)CN(C)C(=O)[C@H](CC2CCC(F)(F)CC2)N2CC/C=C\C[C@@H](C2=O)N(C)C(=O)CN(C)C1=O [PP1451, (2S,8S,12R,14S,20S,23S,27S,30S,36S,38Z)-20-cyclopentyl-2-[(4,4-difluorocyclohexyl)methyl]-8-[2-[3,5-difluoro-4-(trifluoromethyl)phenyl]ethyl]-27-ethyl-N,N,4,19,22,26,32,35-octamethyl-30-[(1S)-1-methylpropyl]-3,6,9,15,18,21,25,28,31,34,42-undecaoxo-12-(trifluoromethyl)spiro[1,4,7,10,16,19,22,26,29,32,35-undecazatricyclo[34.5.1.0^10,14]dotetracont-38-ene-17,1′-cyclobutane]-23-carboxamide] | A (a compound having 10 or more and less than 20 is denoted as A) | 61.1 | 0.14 | A (a compound having 10 or more and less than 20 is denoted as A)
CCO[C@@H]1C[C@H]2C(=O)NC3(CCC3)C(=O)N(C)[C@@H](C3CCCC3)C(=O)N(C)[C@H](C(=O)N(C)C)CC(=O)N(C)[C@@H](CC)C(=O)N[C@@H]([C@@H](C)CC)C(=O)N(C)CC(=O)N(C)[C@H]3C/C=C\CCN(C3=O)[C@@H](CC3CCC(F)(F)CC3)C(=O)N(C)CC(=O)N[C@@H](CCc3cc(F)c(C(F)(F)F)c(F)c3)C(=O)N2C1 [PP1452, (2S,8S,12R,14S,20S,23S,27S,30S,36S,38Z)-20-cyclopentyl-2-[(4,4-difluorocyclohexyl)methyl]-8-[2-[3,5-difluoro-4-(trifluoromethyl)phenyl]ethyl]-12-ethoxy-27-ethyl-N,N,4,19,22,26,32,35-octamethyl-30-[(1S)-1-methylpropyl]-3,6,9,15,18,21,25,28,31,34,42-undecaoxo-spiro[1,4,7,10,16,19,22,26,29,32,35-undecazatricyclo[34.5.1.0^10,14]dotetracont-38-ene-17,1′-cyclobutane]-23-carboxamide] | A (a compound having 10 or more and less than 20 is denoted as A) | 30.5 | 0.13 | A (a compound having 10 or more and less than 20 is denoted as A)
CCO[C@@H]1C[C@H]2C(=O)NC3(CCC3)C(=O)N(C)[C@@H](C3CCCC3)C(=O)N(C)[C@H](C(=O)N(C)C)CC(=O)N(C)[C@@H](CC(C)C)C(=O)N[C@@H]([C@@H](C)CC)C(=O)N(C)CC(=O)N(C)[C@H]3C/C=C\CCN(C3=O)[C@@H](CC3CCC(F)(F)CC3)C(=O)N(C)CC(=O)N[C@@H](CCc3cc(F)c(C(F)(F)F)c(F)c3)C(=O)N2C1 [PP1453, (2S,8S,12R,14S,20S,23S,27S,30S,36S,38Z)-20-cyclopentyl-2-[(4,4-difluorocyclohexyl)methyl]-8-[2-[3,5-difluoro-4-(trifluoromethyl)phenyl]ethyl]-12-ethoxy-27-isobutyl-N,N,4,19,22,26,32,35-octamethyl-30-[(1S)-1-methylpropyl]-3,6,9,15,18,21,25,28,31,34,42-undecaoxo-spiro[1,4,7,10,16,19,22,26,29,32,35-undecazatricyclo[34.5.1.0^10,14]dotetracont-38-ene-17,1′-cyclobutane]-23-carboxamide] | A (a compound having 10 or more and less than 20 is denoted as A) | 13.6 | 0.12 | A (a compound having 10 or more and less than 20 is denoted as A)
C=CC[C@H]1C(=O)N[C@@H]([C@@H](C)CC)C(=O)N(C)CC(=O)N(C)[C@H]2C/C=C\CCN(C2=O)[C@@H](CC2CCC(F)(F)CC2)C(=O)N(C)CC(=O)N[C@@H](CCc2cc(F)c(C(F)(F)F)c(F)c2)C(=O)N2C[C@H](OCC)C[C@H]2C(=O)NC2(CCC2)C(=O)N(C)[C@@H](C2CCCC2)C(=O)N(C)[C@H](C(=O)N(C)C)CC(=O)N1C [PP1454, (2S,8S,12R,14S,20S,23S,27S,30S,36S,38Z)-27-allyl-20-cyclopentyl-2-[(4,4-difluorocyclohexyl)methyl]-8-[2-[3,5-difluoro-4-(trifluoromethyl)phenyl]ethyl]-12-ethoxy-N,N,4,19,22,26,32,35-octamethyl-30-[(1S)-1-methylpropyl]-3,6,9,15,18,21,25,28,31,34,42-undecaoxo-spiro[1,4,7,10,16,19,22,26,29,32,35-undecazatricyclo[34.5.1.0^10,14]dotetracont-38-ene-17,1′-cyclobutane]-23-carboxamide] | A (a compound having 10 or more and less than 20 is denoted as A) | 15.2 | 0.096 | A (a compound having 10 or more and less than 20 is denoted as A)
CCO[C@@H]1C[C@H]2C(=O)NC3(CCC3)C(=O)N(C)[C@@H](C3CCCC3)C(=O)N(C)[C@H](C(=O)N(C)C)CC(=O)N(C)[C@@H](CC3CCC3)C(=O)N[C@@H]([C@@H](C)CC)C(=O)N(C)CC(=O)N(C)[C@H]3C/C=C\CCN(C3=O)[C@@H](CC3CCC(F)(F)CC3)C(=O)N(C)CC(=O)N[C@@H](CCc3cc(F)c(C(F)(F)F)c(F)c3)C(=O)N2C1 [PP1455, (2S,8S,12R,14S,20S,23S,27S,30S,36S,38Z)-27-(cyclobutylmethyl)-20-cyclopentyl-2-[(4,4-difluorocyclohexyl)methyl]-8-[2-[3,5-difluoro-4-(trifluoromethyl)phenyl]ethyl]-12-ethoxy-N,N,4,19,22,26,32,35-octamethyl-30-[(1S)-1-methylpropyl]-3,6,9,15,18,21,25,28,31,34,42-undecaoxo-spiro[1,4,7,10,16,19,22,26,29,32,35-undecazatricyclo[34.5.1.0^10,14]dotetracont-38-ene-17,1′-cyclobutane]-23-carboxamide] | A (a compound having 10 or more and less than 20 is denoted as A) | 13.4 | 0.11 | A (a compound having 10 or more and less than 20 is denoted as A)
CCO[C@@H]1C[C@H]2C(=O)NC3(CCCC3)C(=O)N(C)[C@@H](C3CCCC3)C(=O)N(C)[C@H](C(=O)N(C)C)CC(=O)N(C)[C@@H](C)C(=O)N[C@@H]([C@@H](C)CC)C(=O)N(C)CC(=O)N(C)[C@H]3C/C=C\CCN(C3=O)[C@@H](CC3CCC(F)(F)CC3)C(=O)N(C)CC(=O)N[C@@H](CCc3cc(F)c(C(F)(F)F)c(F)c3)C(=O)N2C1 [PP1456, (2S,8S,12R,14S,20S,23S,27S,30S,36S,38Z)-20-cyclopentyl-2-[(4,4-difluorocyclohexyl)methyl]-8-[2-[3,5-difluoro-4-(trifluoromethyl)phenyl]ethyl]-12-ethoxy-N,N,4,19,22,26,27,32,35-nonamethyl-30-[(1S)-1-methylpropyl]-3,6,9,15,18,21,25,28,31,34,42-undecaoxo-spiro[1,4,7,10,16,19,22,26,29,32,35-undecazatricyclo[34.5.1.0^10,14]dotetracont-38-ene-17,1′-cyclopentane]-23-carboxamide] | A (a compound having 10 or more and less than 20 is denoted as A) | 90 | 0.12 | A (a compound having 10 or more and less than 20 is denoted as A)
